Laboratory results taken from patent US11274083B2, “Substituted thiophenyl uracils, salts thereof and the use thereof as herbicidal agents” (Syngenta Crop Protection AG, priority 2017, dated 2022).

Tests used:
Type in all cases: in vivo
[1] = system: Digitaria sanguinalis; assay: Herbicidal action post-emergence, greenhouse pot test; conditions: application rate 20 g/ha
[2] = system: Oryza sativa; assay: Crop compatibility post-emergence, greenhouse pot test; conditions: application rate 5 g/ha
In short: (§1)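 Visual % damage versus untreated plants, read about 3 weeks after treatment (100% = plants died, 0% = as control). Crops were sown in sandy loam pots in a greenhouse and sprayed at one-leaf stage with WP/EC compound in water with 0.5% additive, 600 L/ha.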

[3] = system: Zea mays; assay: as above
In short: as §1

[4] = system: Hordeum murinum; assay: Herbicidal action post-emergence, greenhouse pot test
In short: (§2)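 Test plants, treated at the one-leaf stage 2 to 3 weeks after sowing in sandy loam, received a foliar spray at 80 g/ha or lower. Visual damage was rated about 3 weeks later as percent efficacy versus untreated plants.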

[5] = system: Abutilon theophrasti; assay: as above
In short: as §2

[6] = system: Polygonum convolvulus; assay: as above
In short: as §2

[7] = system: Viola tricolor; assay: as above
In short: as §2

[8] = system: Alopecurus myosuroides; assay: as above; conditions: scored visually after about 3 weeks vs untreated controls
In short: as §2

[9] = system: Pharbitis purpurea; assay: as above
In short: as §2

[10] = system: Amaranthus retroflexus; assay: as above
In short: as §2

[11] = system: Setaria viridis; assay: as above
In short: as §2

[12] = system: Veronica persica; assay: as above
In short: as §2

[13] = system: Lolium rigidum; assay: as above
In short: as §2

[14] = system: Matricaria inodora; assay: as above
In short: as §2

[15] = system: Stellaria media; assay: as above
In short: as §2

[16] = system: Echinochloa crus-galli; assay: as above
In short: as §2

[17] = system: Avena fatua; assay: as above
In short: as §2

[18] = system: Matricaria inodora; assay: Herbicidal action pre-emergence, greenhouse pot test
[19] = system: Hordeum murinum; assay: as above; conditions: application rate 320 g/ha
In short: (§3)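 Under good greenhouse growth conditions, treated pots are compared visually with untreated ones about three weeks after spraying; the score runs from 0% (like control) to 100% (plants died). Treatment was a WP or EC spray to the soil over sown seeds, at up to 320 g/ha.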

[20] = system: Cyperus esculentus; assay: as above
In short: as §3

[21] = system: Abutilon theophrasti; assay: as above
In short: as §3

[22] = system: Polygonum convolvulus; assay: as above
In short: as §3

[23] = system: Viola tricolor; assay: as above
In short: as §3

[24] = system: Alopecurus myosuroides; assay: as above; conditions: application rate 320 g/ha
In short: as §3

[25] = system: Pharbitis purpurea; assay: as above
In short: as §3

[26] = system: Amaranthus retroflexus; assay: as above; conditions: application rate 80 g/ha
In short: as §3

[27] = system: Setaria viridis; assay: as above
In short: as §3

[28] = system: Veronica persica; assay: as above; conditions: application rate 80 g/ha
In short: as §3

[29] = system: Lolium rigidum; assay: as above; conditions: application rate 320 g/ha
In short: as §3

[30] = system: Stellaria media; assay: as above
In short: as §3

[31] = system: Echinochloa crus-galli; assay: as above; conditions: application rate 320 g/ha
In short: as §3

[32] = system: Avena fatua; assay: as above; conditions: application rate 320 g/ha
In short: as §3

[33] = system: Triticum aestivum; assay: Crop compatibility post-emergence, greenhouse pot test; conditions: application rate 5 g/ha
In short: as §1

SMILES	Oryza sativa (Efficacy in %) [2] [%]	Alopecurus myosuroides (Efficacy in %) ([8]; application rate 20 g/ha) [%]	Pharbitis purpurea (Efficacy in %) ([9]; application rate 20 g/ha) [%]	Veronica persica (Efficacy in %) ([12]; application rate 20 g/ha) [%]	Hordeum murinum (Efficacy in %) [19] [%]	Alopecurus myosuroides (Efficacy in %) [24] [%]	Amaranthus retroflexus (Efficacy in %) [26] [%]	Veronica persica (Efficacy in %) [28] [%]	Lolium rigidum (Efficacy in %) [29] [%]	Echinochloa crus-galli (Efficacy in %) [31] [%]	Triticum aestivum (Efficacy in %) [33] [%]	Hordeum murinum (Efficacy in %) ([4]; application rate 80 g/ha) [%]	Abutilon theophrasti (Efficacy in %) ([5]; application rate 80 g/ha) [%]	Polygonum convolvulus (Efficacy in %) ([6]; application rate 80 g/ha) [%]	Viola tricolor (Efficacy in %) ([7]; application rate 80 g/ha) [%]	Amaranthus retroflexus (Efficacy in %) ([10]; application rate 80 g/ha) [%]	Setaria viridis (Efficacy in %) ([11]; application rate 80 g/ha) [%]	Lolium rigidum (Efficacy in %) ([13]; application rate 80 g/ha) [%]	Matricaria inodora (Efficacy in %) ([14]; application rate 80 g/ha) [%]	Stellaria media (Efficacy in %) ([15]; application rate 80 g/ha) [%]	other results
CC(Sc1cc(-n2c(=O)cc(C(F)(F)F)n(C)c2=O)c(F)cc1Cl)C(=O)OC1COC(=O)C1 (stereo not shown) [I.1-144]	20	80	100	100																	Digitaria sanguinalis (Efficacy in %) [1]: 80%; Zea mays (Efficacy in %) ([3]; application rate 5 g/ha): 10%; Hordeum murinum (Efficacy in %) ([4]; application rate 20 g/ha): 80%; Abutilon theophrasti (Efficacy in %) ([5]; application rate 20 g/ha): 100%; Polygonum convolvulus (Efficacy in %) ([6]; application rate 20 g/ha): 100%; Viola tricolor (Efficacy in %) ([7]; application rate 20 g/ha): 100%; Amaranthus retroflexus (Efficacy in %) ([10]; application rate 20 g/ha): 100%; Setaria viridis (Efficacy in %) ([11]; application rate 20 g/ha): 100%; Lolium rigidum (Efficacy in %) ([13]; application rate 20 g/ha): 100%; Matricaria inodora (Efficacy in %) ([14]; application rate 20 g/ha): 100%; Stellaria media (Efficacy in %) ([15]; application rate 20 g/ha): 80%; Echinochloa crus-galli (Efficacy in %) ([16]; application rate 20 g/ha): 100%; Avena fatua (Efficacy in %) ([17]; application rate 20 g/ha): 100%
CON(C)C(=O)COC(=O)C(C)Sc1cc(-n2c(=O)cc(C(F)(F)F)n(C)c2=O)c(F)cc1Cl (stereo not shown) [I.1-242]	20	90			90	90	100	100	100	100	20	90	100	100	100	100	100	100	100	100	Matricaria inodora (Efficacy in %) ([18]; application rate 80 g/ha): 100%; Cyperus esculentus (Efficacy in %) ([20]; application rate 80 g/ha): 80%; Abutilon theophrasti (Efficacy in %) ([21]; application rate 80 g/ha): 100%; Polygonum convolvulus (Efficacy in %) ([22]; application rate 80 g/ha): 100%; Viola tricolor (Efficacy in %) ([23]; application rate 80 g/ha): 100%; Pharbitis purpurea (Efficacy in %) ([25]; application rate 80 g/ha): 100%; Setaria viridis (Efficacy in %) ([27]; application rate 80 g/ha): 100%; Stellaria media (Efficacy in %) ([30]; application rate 80 g/ha): 100%; Avena fatua (Efficacy in %) [32]: 80%; Zea mays (Efficacy in %) ([3]; application rate 80 g/ha): 20%; Pharbitis purpurea (Efficacy in %) ([9]; application rate 80 g/ha): 100%; Veronica persica (Efficacy in %) ([12]; application rate 80 g/ha): 100%; Echinochloa crus-galli (Efficacy in %) ([16]; application rate 80 g/ha): 100%; Avena fatua (Efficacy in %) ([17]; application rate 80 g/ha): 80%
CCC(Sc1cc(-n2c(=O)cc(C(F)(F)F)n(C)c2=O)c(F)cc1Cl)C(=O)OCCC(=O)OC (stereo not shown) [I.2-2]	20		100	100	100	100	100	100	100	100	20	80	100	100	100	100	100	80	100	100	Matricaria inodora (Efficacy in %) ([18]; application rate 320 g/ha): 100%; Cyperus esculentus (Efficacy in %) ([20]; application rate 320 g/ha): 90%; Abutilon theophrasti (Efficacy in %) ([21]; application rate 320 g/ha): 100%; Polygonum convolvulus (Efficacy in %) ([22]; application rate 320 g/ha): 100%; Viola tricolor (Efficacy in %) ([23]; application rate 320 g/ha): 100%; Pharbitis purpurea (Efficacy in %) ([25]; application rate 320 g/ha): 100%; Setaria viridis (Efficacy in %) ([27]; application rate 320 g/ha): 100%; Stellaria media (Efficacy in %) ([30]; application rate 320 g/ha): 100%; Alopecurus myosuroides (Efficacy in %) ([8]; application rate 80 g/ha): 100%; Echinochloa crus-galli (Efficacy in %) ([16]; application rate 80 g/ha): 100%; Avena fatua (Efficacy in %) ([17]; application rate 80 g/ha): 80%
